Experimental data published in article PMC3933419, “Synthesis and Properties of a Selective Inhibitor of Homeodomain–Interacting Protein Kinase 2 (HIPK2)” (PLoS ONE, 2014).

How the values were obtained:
PIM1 [1] = target: T1, PIM1 (Homo sapiens, UniProt P11309); experiment: PIM1 phosphorylation assay; assay type: biochemical; details: 100 µM ATP
T1 construct: The source of HIPK2 and of all of the other protein kinases used for specificity assays is as described elsewhere
Description: PIM1, CK2, CK1 phosphorylation assays were performed following similar procedures used for HIPK2 except that preincubation was omitted. In detail, PIM1 activity was determined at 100 µM ATP concentration and in the presence of 30 µM synthetic peptide substrate […]. CK2 and CK1 activities were assayed in a buffer containing 50 mM Tris/HCl (pH 7.5), 100 mM NaCl, 12 mM MgCl2, 100 µM specific peptide substrate […] (for CK2), or 200 µM […] (for CK1) and 20 µM [γ-^33P]ATP (500–1000 c.p.m./pmol).

Ser46 of p53 = experiment: Phosphorylation of p53 Ser46 in treated CEM cells (WB); assay type: cell-based, human; details: 6 h treatment
Description: Treatments with TBID were performed in the same medium but with 1% fetal calf serum; control cells were treated with the solvent (DMSO). Total cell lysates were prepared as in [29].
Endogenous HIPK2 activity was evaluated by measuring the phosphorylation level of its target site Ser46 of p53: to this purpose, CEM cells were treated for 6 h as indicated, then lysed. […] Bands were quantified by Carestream Molecular Imaging Software (Kodak) and the obtained values were normalized to total p53 signal with a Cell Signaling Technology antibody; anti-actin (Sigma) was used as loading control.

DYRK2 = DYRK2 (Homo sapiens, UniProt Q92630); experiment: Kinase panel selectivity profiling; assay type: biochemical; details: TBID 1 μM, 125 kinase panel, read-out: % activity of the enzyme
From the text: (§1) The source of HIPK2 and of all of the other protein kinases used for specificity assays is as described elsewhere.
(§2) Conditions for the activity assays of all other protein kinases tested in selectivity experiments are as described or referenced in [9].

MARK2 = MARK2 (Homo sapiens, UniProt Q7KZI7); experiment: Kinase panel selectivity profiling; assay type: biochemical; details: TBID 1 μM, 125 kinase panel, read-out: % activity of the enzyme
Chain of MARK2 (Q7KZI7 whole entry): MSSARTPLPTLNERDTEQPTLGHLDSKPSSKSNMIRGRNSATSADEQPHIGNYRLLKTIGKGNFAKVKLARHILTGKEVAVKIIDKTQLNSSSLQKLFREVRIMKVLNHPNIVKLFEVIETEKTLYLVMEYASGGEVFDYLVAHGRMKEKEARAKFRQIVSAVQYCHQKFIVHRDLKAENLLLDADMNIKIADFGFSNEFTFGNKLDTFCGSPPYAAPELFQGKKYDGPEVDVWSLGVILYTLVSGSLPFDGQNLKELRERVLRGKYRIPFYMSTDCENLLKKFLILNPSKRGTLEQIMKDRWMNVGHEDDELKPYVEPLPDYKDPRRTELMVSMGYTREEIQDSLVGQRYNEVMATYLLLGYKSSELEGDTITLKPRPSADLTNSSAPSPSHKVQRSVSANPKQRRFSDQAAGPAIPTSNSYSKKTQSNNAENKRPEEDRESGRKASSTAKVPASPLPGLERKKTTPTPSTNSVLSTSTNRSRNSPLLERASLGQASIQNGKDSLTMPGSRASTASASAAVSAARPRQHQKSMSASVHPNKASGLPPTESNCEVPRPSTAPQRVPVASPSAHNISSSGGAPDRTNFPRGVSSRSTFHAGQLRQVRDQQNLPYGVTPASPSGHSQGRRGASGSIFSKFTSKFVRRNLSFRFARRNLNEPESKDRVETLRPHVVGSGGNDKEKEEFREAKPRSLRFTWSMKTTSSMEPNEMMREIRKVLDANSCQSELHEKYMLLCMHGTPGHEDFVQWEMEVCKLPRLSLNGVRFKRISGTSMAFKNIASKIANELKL
From the text: as §1, §2

Aurora B = Aurora B (Homo sapiens, UniProt Q96GD4); experiment: Kinase panel selectivity profiling; assay type: biochemical; details: TBID 1 μM, 125 kinase panel, read-out: % activity of the enzyme
From the text: as §1, §2

ERK1 = ERK1 (Homo sapiens, UniProt P27361); experiment: Kinase panel selectivity profiling; assay type: biochemical; details: TBID 1 μM, 125 kinase panel, read-out: % activity of the enzyme
From the text: as §1, §2

IRAK1 = IRAK1 (Homo sapiens, UniProt P51617); experiment: Kinase panel selectivity profiling; assay type: biochemical; details: TBID 1 μM, 125 kinase panel, read-out: % activity of the enzyme
From the text: as §1, §2

MST4 = MST4 (Homo sapiens, UniProt Q9P289); experiment: Kinase panel selectivity profiling; assay type: biochemical; details: TBID 1 μM, 125 kinase panel, read-out: % activity of the enzyme
From the text: as §1, §2

PKCz = PKCz (Homo sapiens, UniProt Q05513); experiment: Kinase panel selectivity profiling; assay type: biochemical; details: TBID 1 μM, 125 kinase panel, read-out: % activity of the enzyme
From the text: as §1, §2

TrkA = TrkA (Homo sapiens, UniProt P04629); experiment: Kinase panel selectivity profiling; assay type: biochemical; details: TBID 1 μM, 125 kinase panel, read-out: % activity of the enzyme
From the text: as §1, §2

HIPK3 = HIPK3 (Homo sapiens, UniProt Q9H422); experiment: Kinase panel selectivity profiling; assay type: biochemical; details: TBID 1 μM, 125 kinase panel, read-out: % activity of the enzyme
From the text: as §1, §2

RSK2 = RSK2 (Homo sapiens, UniProt P51812); experiment: Kinase panel selectivity profiling; assay type: biochemical; details: TBID 1 μM, 125 kinase panel, read-out: % activity of the enzyme
From the text: as §1, §2

BTK = BTK (Homo sapiens, UniProt Q06187); experiment: Kinase panel selectivity profiling; assay type: biochemical
Chain of BTK (Q06187 whole entry): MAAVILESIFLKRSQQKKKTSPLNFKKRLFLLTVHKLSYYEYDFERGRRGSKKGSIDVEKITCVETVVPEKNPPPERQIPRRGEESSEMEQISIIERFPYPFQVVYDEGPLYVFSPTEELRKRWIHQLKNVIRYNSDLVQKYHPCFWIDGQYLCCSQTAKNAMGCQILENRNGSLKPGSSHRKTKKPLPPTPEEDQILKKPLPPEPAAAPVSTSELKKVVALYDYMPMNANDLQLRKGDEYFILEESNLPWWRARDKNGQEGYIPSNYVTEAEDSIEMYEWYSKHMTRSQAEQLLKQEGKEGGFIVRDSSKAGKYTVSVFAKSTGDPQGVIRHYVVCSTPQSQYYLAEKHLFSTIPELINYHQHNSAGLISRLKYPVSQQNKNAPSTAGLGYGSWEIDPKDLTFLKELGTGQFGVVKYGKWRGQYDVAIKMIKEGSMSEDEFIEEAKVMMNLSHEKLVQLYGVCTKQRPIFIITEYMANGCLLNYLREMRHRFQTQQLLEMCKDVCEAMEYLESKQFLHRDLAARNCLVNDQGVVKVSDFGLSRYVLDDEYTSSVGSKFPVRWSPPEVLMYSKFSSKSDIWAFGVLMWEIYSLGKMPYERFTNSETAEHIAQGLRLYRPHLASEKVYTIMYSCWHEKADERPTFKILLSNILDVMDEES
From the text: as §1, §2

NEK2a = NEK2a (Homo sapiens, UniProt P51955); experiment: Kinase panel selectivity profiling; assay type: biochemical; details: TBID 1 μM, 125 kinase panel, read-out: % activity of the enzyme
Chain of NEK2a (P51955 whole entry): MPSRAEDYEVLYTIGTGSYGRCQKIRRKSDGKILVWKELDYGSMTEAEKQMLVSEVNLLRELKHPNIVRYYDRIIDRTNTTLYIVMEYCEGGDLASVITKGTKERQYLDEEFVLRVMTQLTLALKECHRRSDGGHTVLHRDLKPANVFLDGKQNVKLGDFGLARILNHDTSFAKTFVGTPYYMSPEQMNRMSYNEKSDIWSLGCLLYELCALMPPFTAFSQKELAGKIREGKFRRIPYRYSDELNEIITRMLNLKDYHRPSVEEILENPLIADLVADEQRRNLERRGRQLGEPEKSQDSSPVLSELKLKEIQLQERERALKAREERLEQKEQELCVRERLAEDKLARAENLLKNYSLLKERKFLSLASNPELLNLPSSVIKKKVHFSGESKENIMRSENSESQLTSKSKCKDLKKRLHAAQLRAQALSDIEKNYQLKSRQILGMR
From the text: as §1, §2

ERK2 = ERK2 (Homo sapiens, UniProt P28482); experiment: Kinase panel selectivity profiling; assay type: biochemical; details: TBID 1 μM, 125 kinase panel, read-out: % activity of the enzyme
From the text: as §1, §2

PKBa = PKBa (Homo sapiens, UniProt P31749); experiment: Kinase panel selectivity profiling; assay type: biochemical; details: TBID 1 μM, 125 kinase panel, read-out: % activity of the enzyme
From the text: as §1, §2

RSK1 = RSK1 (Homo sapiens, UniProt Q15418); experiment: Kinase panel selectivity profiling; assay type: biochemical; details: TBID 1 μM, 125 kinase panel, read-out: % activity of the enzyme
From the text: as §1, §2

PIM1 [2] = target: T1, PIM1; experiment: Kinase panel selectivity profiling; assay type: biochemical
From the text: as §1, §2

TSSK1 = TSSK1 (Homo sapiens, UniProt Q9BXA7); experiment: Kinase panel selectivity profiling; assay type: biochemical; details: TBID 1 μM, 125 kinase panel, read-out: % activity of the enzyme
From the text: as §1, §2

MINK1 = MINK1 (Homo sapiens, UniProt Q8N4C8); experiment: Kinase panel selectivity profiling; assay type: biochemical; details: TBID 1 μM, 125 kinase panel, read-out: % activity of the enzyme
From the text: as §1, §2

MAPKAP-K2 = MAPKAP-K2 (Homo sapiens, UniProt P49137); experiment: Kinase panel selectivity profiling; assay type: biochemical; details: TBID 1 μM, 125 kinase panel, read-out: % activity of the enzyme
From the text: as §1, §2

NUAK1 = NUAK1 (Homo sapiens, UniProt O60285); experiment: Kinase panel selectivity profiling; assay type: biochemical; details: TBID 1 μM, 125 kinase panel, read-out: % activity of the enzyme
Chain of NUAK1 (O60285 whole entry): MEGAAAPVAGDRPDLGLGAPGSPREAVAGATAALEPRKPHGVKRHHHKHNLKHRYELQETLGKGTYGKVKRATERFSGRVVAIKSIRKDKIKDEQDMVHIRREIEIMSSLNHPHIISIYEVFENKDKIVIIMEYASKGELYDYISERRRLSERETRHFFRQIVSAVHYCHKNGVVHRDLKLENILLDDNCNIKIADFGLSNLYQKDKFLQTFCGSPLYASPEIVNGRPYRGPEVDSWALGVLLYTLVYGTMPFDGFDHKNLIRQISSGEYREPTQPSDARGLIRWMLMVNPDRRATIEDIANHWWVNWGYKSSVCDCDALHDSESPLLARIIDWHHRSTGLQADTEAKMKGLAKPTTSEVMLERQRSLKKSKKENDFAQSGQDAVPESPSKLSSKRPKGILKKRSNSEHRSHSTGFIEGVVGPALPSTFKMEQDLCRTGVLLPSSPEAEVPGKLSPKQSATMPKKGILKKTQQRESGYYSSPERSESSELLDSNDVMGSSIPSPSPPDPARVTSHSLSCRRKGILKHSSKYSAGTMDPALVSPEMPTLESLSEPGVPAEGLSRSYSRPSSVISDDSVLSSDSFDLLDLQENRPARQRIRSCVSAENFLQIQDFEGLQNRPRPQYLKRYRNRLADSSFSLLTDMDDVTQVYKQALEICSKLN
From the text: as §1, §2

BRK = BRK (Homo sapiens, UniProt Q13882); experiment: Kinase panel selectivity profiling; assay type: biochemical; details: TBID 1 μM, 125 kinase panel, read-out: % activity of the enzyme
From the text: as §1, §2

MKK6 = MKK6 (Homo sapiens, UniProt P52564); experiment: Kinase panel selectivity profiling; assay type: biochemical; details: TBID 1 μM, 125 kinase panel, read-out: % activity of the enzyme
From the text: as §1, §2

CAMK1 = CAMK1 (Homo sapiens, UniProt Q14012); experiment: Kinase panel selectivity profiling; assay type: biochemical; details: TBID 1 μM, 125 kinase panel, read-out: % activity of the enzyme
From the text: as §1, §2

PAK4 = PAK4 (Homo sapiens, UniProt O96013); experiment: Kinase panel selectivity profiling; assay type: biochemical; details: TBID 1 μM, 125 kinase panel, read-out: % activity of the enzyme
From the text: as §1, §2

CHK1 = CHK1 (Homo sapiens, UniProt O14757); experiment: Kinase panel selectivity profiling; assay type: biochemical; details: TBID 1 μM, 125 kinase panel, read-out: % activity of the enzyme
From the text: as §1, §2

ASK1 = ASK1 (Homo sapiens, UniProt Q99683); experiment: Kinase panel selectivity profiling; assay type: biochemical; details: TBID 1 μM, 125 kinase panel, read-out: % activity of the enzyme
From the text: as §1, §2

p38b MAPK = p38b MAPK (Homo sapiens, UniProt Q15759); experiment: Kinase panel selectivity profiling; assay type: biochemical; details: TBID 1 μM, 125 kinase panel, read-out: % activity of the enzyme
From the text: as §1, §2

IRR = IRR (Homo sapiens, UniProt P14616); experiment: Kinase panel selectivity profiling; assay type: biochemical; details: TBID 1 μM, 125 kinase panel, read-out: % activity of the enzyme
From the text: as §1, §2

IKKe = IKKe (Homo sapiens, UniProt Q14164); experiment: Kinase panel selectivity profiling; assay type: biochemical; details: TBID 1 μM, 125 kinase panel, read-out: % activity of the enzyme
Chain of IKKe (Q14164 whole entry): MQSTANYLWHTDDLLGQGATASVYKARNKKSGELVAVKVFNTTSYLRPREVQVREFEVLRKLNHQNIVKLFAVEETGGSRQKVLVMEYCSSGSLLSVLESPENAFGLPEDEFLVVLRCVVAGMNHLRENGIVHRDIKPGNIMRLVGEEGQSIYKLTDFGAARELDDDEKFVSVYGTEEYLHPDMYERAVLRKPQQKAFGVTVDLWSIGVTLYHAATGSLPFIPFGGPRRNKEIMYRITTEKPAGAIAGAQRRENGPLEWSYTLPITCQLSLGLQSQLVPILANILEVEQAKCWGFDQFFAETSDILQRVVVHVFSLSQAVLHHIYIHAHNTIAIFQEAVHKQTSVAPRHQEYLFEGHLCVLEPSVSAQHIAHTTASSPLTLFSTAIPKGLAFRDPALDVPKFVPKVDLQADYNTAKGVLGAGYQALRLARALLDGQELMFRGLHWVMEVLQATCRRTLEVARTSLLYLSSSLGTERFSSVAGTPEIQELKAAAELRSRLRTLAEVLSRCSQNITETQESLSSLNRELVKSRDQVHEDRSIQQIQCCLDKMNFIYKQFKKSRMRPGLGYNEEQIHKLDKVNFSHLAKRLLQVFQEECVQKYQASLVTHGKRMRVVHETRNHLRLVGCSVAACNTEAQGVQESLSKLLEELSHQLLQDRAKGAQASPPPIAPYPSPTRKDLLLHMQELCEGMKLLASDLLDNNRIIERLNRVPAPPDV
From the text: as §1, §2

HIPK2 = target: T2, HIPK2 (Homo sapiens, UniProt Q9H2X6); experiment: Kinetic analysis of HIPK2 inhibition (Lineweaver-Burk); assay type: biochemical
T2 construct: The source of HIPK2 and of all of the other protein kinases used for specificity assays is as described elsewhere
T2 sequence (Q9H2X6 whole entry): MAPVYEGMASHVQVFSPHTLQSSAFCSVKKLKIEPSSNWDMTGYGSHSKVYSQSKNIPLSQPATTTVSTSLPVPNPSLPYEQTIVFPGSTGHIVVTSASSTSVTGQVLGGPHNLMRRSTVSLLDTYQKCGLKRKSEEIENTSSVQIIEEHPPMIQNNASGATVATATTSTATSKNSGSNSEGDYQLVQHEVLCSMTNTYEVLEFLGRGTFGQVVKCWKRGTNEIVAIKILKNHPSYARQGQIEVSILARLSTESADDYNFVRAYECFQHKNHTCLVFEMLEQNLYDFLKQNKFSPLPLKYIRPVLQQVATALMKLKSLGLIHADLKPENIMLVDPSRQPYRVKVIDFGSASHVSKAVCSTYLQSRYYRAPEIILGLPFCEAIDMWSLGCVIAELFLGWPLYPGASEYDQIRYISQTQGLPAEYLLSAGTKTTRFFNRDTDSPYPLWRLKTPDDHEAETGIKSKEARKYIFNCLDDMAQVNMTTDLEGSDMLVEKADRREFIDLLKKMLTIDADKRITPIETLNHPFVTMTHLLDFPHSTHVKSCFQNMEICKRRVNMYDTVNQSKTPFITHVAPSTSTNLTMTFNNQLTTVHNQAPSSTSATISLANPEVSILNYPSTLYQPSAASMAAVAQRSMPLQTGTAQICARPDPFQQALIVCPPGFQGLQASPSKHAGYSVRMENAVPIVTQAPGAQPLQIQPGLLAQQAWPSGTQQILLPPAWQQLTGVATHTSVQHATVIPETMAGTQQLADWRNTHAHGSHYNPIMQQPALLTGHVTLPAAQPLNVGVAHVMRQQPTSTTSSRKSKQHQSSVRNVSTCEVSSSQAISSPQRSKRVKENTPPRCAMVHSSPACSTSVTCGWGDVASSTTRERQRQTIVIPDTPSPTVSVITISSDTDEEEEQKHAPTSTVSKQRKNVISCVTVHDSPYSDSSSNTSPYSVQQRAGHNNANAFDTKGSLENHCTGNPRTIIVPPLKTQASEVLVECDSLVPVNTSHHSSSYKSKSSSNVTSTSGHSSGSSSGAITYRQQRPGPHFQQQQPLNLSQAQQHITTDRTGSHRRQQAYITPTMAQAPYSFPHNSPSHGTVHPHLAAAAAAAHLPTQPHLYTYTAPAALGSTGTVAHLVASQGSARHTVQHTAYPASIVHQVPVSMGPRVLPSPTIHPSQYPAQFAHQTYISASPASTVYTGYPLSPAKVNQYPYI
Description: Initial velocities were determined at each of the ATP concentration tested, at 1 mM […] peptide concentration. Km values were calculated either in the absence or in the presence of increasing concentrations of inhibitor, from Lineweaver-Burk double-reciprocal plots of the data. Inhibition constants were then calculated by linear regression analysis of Km/Vmax versus inhibitor concentration plots.

[3] = TBID 1 μM, 125 kinase panel, read-out: % activity of the enzyme

T1 sequence (P11309 whole entry, species assumed): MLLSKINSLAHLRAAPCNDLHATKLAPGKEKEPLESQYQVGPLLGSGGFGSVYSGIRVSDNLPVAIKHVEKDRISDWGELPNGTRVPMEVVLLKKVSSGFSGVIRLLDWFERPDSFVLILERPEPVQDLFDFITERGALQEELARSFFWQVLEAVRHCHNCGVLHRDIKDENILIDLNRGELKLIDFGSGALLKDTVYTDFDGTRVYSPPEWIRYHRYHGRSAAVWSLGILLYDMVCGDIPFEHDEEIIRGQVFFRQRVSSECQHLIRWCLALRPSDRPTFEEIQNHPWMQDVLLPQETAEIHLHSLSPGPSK

O=C1c2c(Br)c(Br)c(Br)c(Br)c2C(=O)N1c1ncc[nH]1 [TBID, 4,5,6,7-Tetrabromo-2-(1H-imidazol-2-yl)isoindoline-1,3-dione]
IC50 (PIM1 [1]): > 40000 nM
phosphorylation level of p53 Ser46 (Ser46 of p53): markedly reduces
activity at 1 µM (DYRK2): 94%
activity at 1 µM (MARK2): 100%
activity at 1 µM (Aurora B): 106%
activity at 1 µM (ERK1): 98%
activity at 1 µM (IRAK1): 82%
activity at 1 µM (MST4): 108%
activity at 1 µM (PKCz): 104%
activity at 1 µM (TrkA): 100%
activity at 1 µM (HIPK3): 53%
activity at 1 µM (RSK2): 101%
remaining activity at 10 µM (BTK; 10 µM TBID, panel of 76 protein kinases, read-out: residual activity): 29%
activity at 1 µM (BTK; [3]): 84%
activity at 1 µM (NEK2a): 89%
activity at 1 µM (ERK2): 91%
activity at 1 µM (PKBa): 104%
activity at 1 µM (RSK1): 93%
residual activity (PIM1 [2]; 10 µM TBID, panel of 76 protein kinases): entirely unaffected
activity at 1 µM (PIM1 [2]; [3]): 104%
activity at 1 µM (TSSK1): 109%
activity at 1 µM (MINK1): 91%
activity at 1 µM (MAPKAP-K2): 119%
activity at 1 µM (NUAK1): 81%
activity at 1 µM (BRK): 103%
activity at 1 µM (MKK6): 90%
activity at 1 µM (CAMK1): 78%
activity at 1 µM (PAK4): 99%
activity at 1 µM (CHK1): 102%
activity at 1 µM (ASK1): 126%
activity at 1 µM (p38b MAPK): 111%
activity at 1 µM (IRR): 100%
activity at 1 µM (IKKe): 85%
Ki (HIPK2): 200 nM
mode of inhibition of HIPK2 (HIPK2; with respect to ATP): competitive with respect to ATP
